Assay results taken from publication PMC13210772, “Dual FLT3/MAPK14 Proteolysis-Targeting Chimera (PROTAC) Induces Potent Acute Myeloid Leukemia Cell Death” (Pharmaceuticals, 2026).

Tests used:
Experiment in all cases: NanoBRET CELLinib128
Type in all cases: binding
[1] = molecular target: T1, SIK1 (Homo sapiens, UniProt P57059); conditions: 1 µM; 100% no effect, 0% complete tracer displacement
T1 construct: Full-length kinase ORF (Promega, Madison, WI, USA) cloned in frame with a NanoLuc-vector was transfected into HEK293T cells; host or cells: HEK293T
Procedure: (§1) To get an impression about the binding strength of the PROTAC MA191 and the reference inhibitor MA68 to other kinases besides FLT3-ITD the binding on a kinase panel of further 128 representative protein kinases at 1 μM concentration was tested using the NanoBRET^TM cellular target engagement assay (CELLinib128 assay, CELLinib GmbH, Frankfurt, Germany). […] In none of the 128 kinases MA191 was able to displace the tracer (inhibitor) used by more than 50%, Table S1, Supplementary Information).
(§2) The CELLinib128 assay was performed by CELLinib GmbH, Frankfurt (Germany) as described previously. In brief: Full-length kinase ORF (Promega, Madison, WI, USA) cloned in frame with a NanoLuc-vector was transfected into HEK293T cells in Opti-MEM without phenol red (Life Technologies, Carlsbad, CA, USA) at a density of 2 × 10^5 cells/mL using FuGENE HD (Promega, E2312) and proteins were allowed to express for 20 h. For CDKs, where indicated below, an excess of an activator without an NLuc-fusion was cotransfected. […] The system was allowed to equilibrate at 37 °C for 2 h and 5% CO2 prior to BRET measurements. For PKCs, a chemical activator PMA was added in a final concentration of 1 µM was added together with test compounds and tracers (Promega, V1171). To measure BRET, NanoBRET^TM NanoGlo substrate + extracellular NanoLuc inhibitor (Promega, N2160) were added as per the manufacturer’s protocol, and filtered luminescence was measured (450 nm BP filter (donor) and 610 nm LP filter (acceptor)). For the 1-shot test compounds, data were normalized to the tracer control and the background control or control compound plateau and an average and SD were calculated. […] For the control compounds competitive displacement data were normalized to the tracer Ctrl and the background Ctrl and then plotted and fitted using GraphPad Prism 10 software using a normalized 3-parameter curve fit with the following equation: Y = 100/(1 + 10^X−LogIC50).

[2] = molecular target: T2, MLTK (Homo sapiens, UniProt Q9NYL2); conditions: 100% no effect, 0% complete tracer displacement, read-out: Tracer bound
T2 construct: Full-length kinase ORF (Promega, Madison, WI, USA) cloned in frame with a NanoLuc-vector was transfected into HEK293T cells; host or cells: HEK293T
Procedure: as §1, §2

[3] = molecular target: T3, AURKB (Homo sapiens, UniProt Q96GD4); conditions: 100% no effect, 0% complete tracer displacement, read-out: Tracer bound
T3 construct: Full-length kinase ORF (Promega, Madison, WI, USA) cloned in frame with a NanoLuc-vector was transfected into HEK293T cells; host or cells: HEK293T
Procedure: as §1, §2

[4] = molecular target: T4, MAP4K5 (Homo sapiens, UniProt Q9Y4K4); conditions: 100% no effect, 0% complete tracer displacement, read-out: Tracer bound
T4 construct: Full-length kinase ORF (Promega, Madison, WI, USA) cloned in frame with a NanoLuc-vector was transfected into HEK293T cells; host or cells: HEK293T
Procedure: as §1, §2

[5] = molecular target: T5, HUNK (Homo sapiens, UniProt P57058); conditions: 100% no effect, 0% complete tracer displacement, read-out: Tracer bound
T5 construct: Full-length kinase ORF (Promega, Madison, WI, USA) cloned in frame with a NanoLuc-vector was transfected into HEK293T cells; host or cells: HEK293T
Procedure: as §1, §2

[6] = molecular target: T6, PLK4 (Homo sapiens, UniProt O00444); conditions: 100% no effect, 0% complete tracer displacement, read-out: Tracer bound
T6 construct: Full-length kinase ORF (Promega, Madison, WI, USA) cloned in frame with a NanoLuc-vector was transfected into HEK293T cells; host or cells: HEK293T
Procedure: as §1, §2

[7] = molecular target: T7, IRAK3 (Homo sapiens, UniProt Q9Y616); conditions: 100% no effect, 0% complete tracer displacement, read-out: Tracer bound
T7 construct: Full-length kinase ORF (Promega, Madison, WI, USA) cloned in frame with a NanoLuc-vector was transfected into HEK293T cells; host or cells: HEK293T
Procedure: as §1, §2

[8] = molecular target: T8, CDK3-CCNE1 (Homo sapiens, UniProt Q00526); conditions: 1 µM; 100% no effect, 0% complete tracer displacement
T8 construct: Full-length kinase ORF (Promega, Madison, WI, USA) cloned in frame with a NanoLuc-vector was transfected into HEK293T cells; host or cells: HEK293T
Procedure: as §1, §2

[9] = molecular target: T9, PRKCD-PMA (Homo sapiens, UniProt Q05655); conditions: 100% no effect, 0% complete tracer displacement, read-out: Tracer bound
T9 construct: Full-length kinase ORF (Promega, Madison, WI, USA) cloned in frame with a NanoLuc-vector was transfected into HEK293T cells; host or cells: HEK293T
Procedure: as §1, §2

[10] = molecular target: T10, PRKCQ-PMA (Homo sapiens, UniProt Q04759); conditions: 100% no effect, 0% complete tracer displacement, read-out: Tracer bound
T10 construct: Full-length kinase ORF (Promega, Madison, WI, USA) cloned in frame with a NanoLuc-vector was transfected into HEK293T cells; host or cells: HEK293T
Procedure: as §1, §2

[11] = molecular target: T11, MAP3K9 (Homo sapiens, UniProt P80192); conditions: 100% no effect, 0% complete tracer displacement, read-out: Tracer bound
T11 construct: Full-length kinase ORF (Promega, Madison, WI, USA) cloned in frame with a NanoLuc-vector was transfected into HEK293T cells; host or cells: HEK293T
Procedure: as §1, §2

[12] = molecular target: T12, AURKC (Homo sapiens, UniProt Q9UQB9); conditions: 100% no effect, 0% complete tracer displacement, read-out: Tracer bound
T12 construct: Full-length kinase ORF (Promega, Madison, WI, USA) cloned in frame with a NanoLuc-vector was transfected into HEK293T cells; host or cells: HEK293T
Procedure: as §1, §2

[13] = molecular target: T13, EPHA6 (Homo sapiens, UniProt Q9UF33); conditions: 100% no effect, 0% complete tracer displacement, read-out: Tracer bound
T13 construct: Full-length kinase ORF (Promega, Madison, WI, USA) cloned in frame with a NanoLuc-vector was transfected into HEK293T cells; host or cells: HEK293T
Procedure: as §1, §2

[14] = molecular target: T14, PAK6 (Homo sapiens, UniProt Q9NQU5); conditions: 100% no effect, 0% complete tracer displacement, read-out: Tracer bound
T14 construct: Full-length kinase ORF (Promega, Madison, WI, USA) cloned in frame with a NanoLuc-vector was transfected into HEK293T cells; host or cells: HEK293T
Procedure: as §1, §2

[15] = molecular target: T15, SRMS (Homo sapiens, UniProt Q9H3Y6); conditions: 100% no effect, 0% complete tracer displacement, read-out: Tracer bound
T15 construct: Full-length kinase ORF (Promega, Madison, WI, USA) cloned in frame with a NanoLuc-vector was transfected into HEK293T cells; host or cells: HEK293T
Procedure: as §1, §2

[16] = molecular target: T16, ERN1 (Homo sapiens, UniProt O75460); conditions: 100% no effect, 0% complete tracer displacement, read-out: Tracer bound
T16 construct: Full-length kinase ORF (Promega, Madison, WI, USA) cloned in frame with a NanoLuc-vector was transfected into HEK293T cells; host or cells: HEK293T
Procedure: as §1, §2

[17] = molecular target: T17, PRKACB (Homo sapiens, UniProt P22694); conditions: 100% no effect, 0% complete tracer displacement, read-out: Tracer bound
T17 construct: Full-length kinase ORF (Promega, Madison, WI, USA) cloned in frame with a NanoLuc-vector was transfected into HEK293T cells; host or cells: HEK293T
Procedure: as §1, §2

[18] = molecular target: T18, CSNK1G2 (Homo sapiens, UniProt P78368); conditions: 1 µM; 100% no effect, 0% complete tracer displacement
T18 construct: Full-length kinase ORF (Promega, Madison, WI, USA) cloned in frame with a NanoLuc-vector was transfected into HEK293T cells; host or cells: HEK293T
Procedure: as §1, §2

[19] = molecular target: T19, CDK5-CDK5R2 (Homo sapiens, UniProt Q00535); conditions: 100% no effect, 0% complete tracer displacement, read-out: Tracer bound
T19 construct: Full-length kinase ORF (Promega, Madison, WI, USA) cloned in frame with a NanoLuc-vector was transfected into HEK293T cells; host or cells: HEK293T
Procedure: as §1, §2

[20] = molecular target: T20, BRSK1 (Homo sapiens, UniProt Q8TDC3); conditions: 100% no effect, 0% complete tracer displacement, read-out: Tracer bound
T20 construct: Full-length kinase ORF (Promega, Madison, WI, USA) cloned in frame with a NanoLuc-vector was transfected into HEK293T cells; host or cells: HEK293T
Procedure: as §1, §2

[21] = molecular target: T21, LIMK2 (Homo sapiens, UniProt P53671); conditions: 100% no effect, 0% complete tracer displacement, read-out: Tracer bound
T21 construct: Full-length kinase ORF (Promega, Madison, WI, USA) cloned in frame with a NanoLuc-vector was transfected into HEK293T cells; host or cells: HEK293T
Procedure: as §1, §2

[22] = molecular target: T22, PHKG1 (Homo sapiens, UniProt Q16816); conditions: 100% no effect, 0% complete tracer displacement, read-out: Tracer bound
T22 construct: Full-length kinase ORF (Promega, Madison, WI, USA) cloned in frame with a NanoLuc-vector was transfected into HEK293T cells; host or cells: HEK293T
Procedure: as §1, §2

[23] = molecular target: T23, FGFR1 (Homo sapiens, UniProt P11362); conditions: 100% no effect, 0% complete tracer displacement, read-out: Tracer bound
T23 construct: Full-length kinase ORF (Promega, Madison, WI, USA) cloned in frame with a NanoLuc-vector was transfected into HEK293T cells; host or cells: HEK293T
Procedure: as §1, §2

[24] = molecular target: T24, ULK3v1 (Homo sapiens, UniProt Q6PHR2); conditions: 1 µM; 100% no effect, 0% complete tracer displacement
T24 construct: Full-length kinase ORF (Promega, Madison, WI, USA) cloned in frame with a NanoLuc-vector; host or cells: HEK293T
Procedure: as §1, §2

[25] = molecular target: T25, NEK1 (Homo sapiens, UniProt Q96PY6); conditions: 100% no effect, 0% complete tracer displacement, read-out: Tracer bound
T25 construct: Full-length kinase ORF (Promega, Madison, WI, USA) cloned in frame with a NanoLuc-vector was transfected into HEK293T cells; host or cells: HEK293T
Procedure: as §1, §2

[26] = molecular target: T26, MUSK (Homo sapiens, UniProt O15146); conditions: 100% no effect, 0% complete tracer displacement, read-out: Tracer bound
T26 construct: Full-length kinase ORF (Promega, Madison, WI, USA) cloned in frame with a NanoLuc-vector was transfected into HEK293T cells; host or cells: HEK293T
Procedure: as §1, §2

[27] = molecular target: T27, CDK2-CCNE1 (Homo sapiens, UniProt P24941); conditions: 1 µM; 100% no effect, 0% complete tracer displacement
T27 construct: Full-length kinase ORF (Promega, Madison, WI, USA) cloned in frame with a NanoLuc-vector was transfected into HEK293T cells; host or cells: HEK293T
Procedure: as §1, §2

[28] = molecular target: T28, MAP4K2 (Homo sapiens, UniProt Q12851); conditions: 100% no effect, 0% complete tracer displacement, read-out: Tracer bound
T28 construct: Full-length kinase ORF (Promega, Madison, WI, USA) cloned in frame with a NanoLuc-vector was transfected into HEK293T cells; host or cells: HEK293T
Procedure: as §1, §2

[29] = molecular target: T29, PAK4 (Homo sapiens, UniProt O96013); conditions: 100% no effect, 0% complete tracer displacement, read-out: Tracer bound
T29 construct: Full-length kinase ORF (Promega, Madison, WI, USA) cloned in frame with a NanoLuc-vector was transfected into HEK293T cells; host or cells: HEK293T
Procedure: as §1, §2

[30] = molecular target: T30, CDK17-CCNY (Homo sapiens, UniProt Q00537); conditions: 100% no effect, 0% complete tracer displacement, read-out: Tracer bound
T30 construct: Full-length kinase ORF (Promega, Madison, WI, USA) cloned in frame with a NanoLuc-vector was transfected into HEK293T cells; host or cells: HEK293T
Procedure: as §1, §2

T13 sequence (Q9UF33 23-1036): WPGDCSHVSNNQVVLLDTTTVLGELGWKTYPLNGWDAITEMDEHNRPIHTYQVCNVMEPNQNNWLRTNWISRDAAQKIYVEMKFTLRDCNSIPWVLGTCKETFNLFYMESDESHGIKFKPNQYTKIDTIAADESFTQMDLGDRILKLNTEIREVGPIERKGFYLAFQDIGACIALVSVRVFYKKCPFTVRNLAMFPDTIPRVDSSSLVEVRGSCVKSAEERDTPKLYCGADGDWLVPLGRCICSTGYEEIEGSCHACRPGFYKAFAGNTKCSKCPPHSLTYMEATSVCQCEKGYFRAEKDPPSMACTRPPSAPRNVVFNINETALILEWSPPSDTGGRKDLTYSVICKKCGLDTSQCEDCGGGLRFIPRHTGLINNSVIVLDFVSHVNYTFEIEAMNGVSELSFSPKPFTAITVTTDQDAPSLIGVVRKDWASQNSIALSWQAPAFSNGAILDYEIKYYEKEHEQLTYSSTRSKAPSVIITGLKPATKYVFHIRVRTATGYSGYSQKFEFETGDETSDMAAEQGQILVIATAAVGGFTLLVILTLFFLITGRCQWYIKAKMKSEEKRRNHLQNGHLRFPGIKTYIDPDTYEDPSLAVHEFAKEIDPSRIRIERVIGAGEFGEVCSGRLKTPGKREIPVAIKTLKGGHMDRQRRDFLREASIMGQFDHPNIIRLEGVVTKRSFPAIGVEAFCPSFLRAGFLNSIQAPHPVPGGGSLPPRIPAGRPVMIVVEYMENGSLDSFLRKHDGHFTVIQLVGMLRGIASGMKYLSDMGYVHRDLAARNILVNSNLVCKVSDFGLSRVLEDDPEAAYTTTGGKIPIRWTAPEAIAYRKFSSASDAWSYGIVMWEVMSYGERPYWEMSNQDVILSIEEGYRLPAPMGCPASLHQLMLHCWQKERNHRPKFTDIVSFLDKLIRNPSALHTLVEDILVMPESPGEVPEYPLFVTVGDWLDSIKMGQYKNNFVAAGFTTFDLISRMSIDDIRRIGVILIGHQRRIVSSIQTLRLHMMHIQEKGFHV
T11 sequence (P80192 whole entry): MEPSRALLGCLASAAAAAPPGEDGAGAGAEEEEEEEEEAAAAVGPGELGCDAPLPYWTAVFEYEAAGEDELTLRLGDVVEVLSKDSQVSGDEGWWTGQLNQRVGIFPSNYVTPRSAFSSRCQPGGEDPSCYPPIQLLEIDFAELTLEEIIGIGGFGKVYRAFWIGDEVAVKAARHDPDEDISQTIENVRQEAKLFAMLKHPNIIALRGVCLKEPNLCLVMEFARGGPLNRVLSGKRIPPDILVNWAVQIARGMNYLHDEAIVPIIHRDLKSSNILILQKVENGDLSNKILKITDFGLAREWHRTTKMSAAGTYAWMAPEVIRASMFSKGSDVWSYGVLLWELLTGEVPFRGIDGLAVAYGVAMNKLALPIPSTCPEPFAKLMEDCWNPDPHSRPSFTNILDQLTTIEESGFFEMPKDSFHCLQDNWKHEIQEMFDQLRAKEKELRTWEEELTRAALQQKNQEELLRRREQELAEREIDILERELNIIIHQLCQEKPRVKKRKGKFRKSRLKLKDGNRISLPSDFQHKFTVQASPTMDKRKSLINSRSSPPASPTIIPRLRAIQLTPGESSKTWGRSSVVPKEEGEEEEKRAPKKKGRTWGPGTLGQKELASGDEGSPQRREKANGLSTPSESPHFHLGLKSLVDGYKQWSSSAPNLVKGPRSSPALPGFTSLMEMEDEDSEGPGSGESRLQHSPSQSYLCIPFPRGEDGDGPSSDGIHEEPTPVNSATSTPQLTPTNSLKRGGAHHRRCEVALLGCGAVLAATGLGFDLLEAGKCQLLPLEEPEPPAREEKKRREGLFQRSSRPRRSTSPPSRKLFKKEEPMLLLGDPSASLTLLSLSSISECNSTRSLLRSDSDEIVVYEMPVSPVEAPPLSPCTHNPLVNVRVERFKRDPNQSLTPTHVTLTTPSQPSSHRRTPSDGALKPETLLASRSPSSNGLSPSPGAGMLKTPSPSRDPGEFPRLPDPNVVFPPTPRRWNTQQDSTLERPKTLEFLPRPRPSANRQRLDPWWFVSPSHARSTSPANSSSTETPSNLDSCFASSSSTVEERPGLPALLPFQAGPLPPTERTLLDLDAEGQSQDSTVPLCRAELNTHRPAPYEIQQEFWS
T2 sequence (Q9NYL2 whole entry): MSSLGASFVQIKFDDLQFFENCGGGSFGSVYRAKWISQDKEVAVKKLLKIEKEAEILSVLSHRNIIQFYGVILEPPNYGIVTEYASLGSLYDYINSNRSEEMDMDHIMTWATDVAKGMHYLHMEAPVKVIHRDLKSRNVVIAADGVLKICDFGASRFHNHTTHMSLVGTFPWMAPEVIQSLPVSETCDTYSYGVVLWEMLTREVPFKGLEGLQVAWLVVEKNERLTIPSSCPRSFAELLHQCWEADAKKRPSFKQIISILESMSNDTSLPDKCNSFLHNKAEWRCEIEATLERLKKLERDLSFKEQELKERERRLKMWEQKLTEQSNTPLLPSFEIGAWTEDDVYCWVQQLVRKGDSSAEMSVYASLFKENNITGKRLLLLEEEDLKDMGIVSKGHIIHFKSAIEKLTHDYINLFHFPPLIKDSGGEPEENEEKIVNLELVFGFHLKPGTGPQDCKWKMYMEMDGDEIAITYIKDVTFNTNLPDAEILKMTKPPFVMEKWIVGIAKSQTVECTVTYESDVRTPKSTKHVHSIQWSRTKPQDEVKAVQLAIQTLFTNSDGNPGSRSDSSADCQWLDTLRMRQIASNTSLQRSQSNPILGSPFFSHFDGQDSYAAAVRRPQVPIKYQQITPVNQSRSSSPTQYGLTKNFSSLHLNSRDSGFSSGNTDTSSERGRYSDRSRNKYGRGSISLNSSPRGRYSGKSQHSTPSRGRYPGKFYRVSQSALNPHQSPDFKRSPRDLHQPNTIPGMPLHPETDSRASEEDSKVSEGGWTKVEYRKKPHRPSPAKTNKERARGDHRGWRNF
T25 sequence (Q96PY6 whole entry): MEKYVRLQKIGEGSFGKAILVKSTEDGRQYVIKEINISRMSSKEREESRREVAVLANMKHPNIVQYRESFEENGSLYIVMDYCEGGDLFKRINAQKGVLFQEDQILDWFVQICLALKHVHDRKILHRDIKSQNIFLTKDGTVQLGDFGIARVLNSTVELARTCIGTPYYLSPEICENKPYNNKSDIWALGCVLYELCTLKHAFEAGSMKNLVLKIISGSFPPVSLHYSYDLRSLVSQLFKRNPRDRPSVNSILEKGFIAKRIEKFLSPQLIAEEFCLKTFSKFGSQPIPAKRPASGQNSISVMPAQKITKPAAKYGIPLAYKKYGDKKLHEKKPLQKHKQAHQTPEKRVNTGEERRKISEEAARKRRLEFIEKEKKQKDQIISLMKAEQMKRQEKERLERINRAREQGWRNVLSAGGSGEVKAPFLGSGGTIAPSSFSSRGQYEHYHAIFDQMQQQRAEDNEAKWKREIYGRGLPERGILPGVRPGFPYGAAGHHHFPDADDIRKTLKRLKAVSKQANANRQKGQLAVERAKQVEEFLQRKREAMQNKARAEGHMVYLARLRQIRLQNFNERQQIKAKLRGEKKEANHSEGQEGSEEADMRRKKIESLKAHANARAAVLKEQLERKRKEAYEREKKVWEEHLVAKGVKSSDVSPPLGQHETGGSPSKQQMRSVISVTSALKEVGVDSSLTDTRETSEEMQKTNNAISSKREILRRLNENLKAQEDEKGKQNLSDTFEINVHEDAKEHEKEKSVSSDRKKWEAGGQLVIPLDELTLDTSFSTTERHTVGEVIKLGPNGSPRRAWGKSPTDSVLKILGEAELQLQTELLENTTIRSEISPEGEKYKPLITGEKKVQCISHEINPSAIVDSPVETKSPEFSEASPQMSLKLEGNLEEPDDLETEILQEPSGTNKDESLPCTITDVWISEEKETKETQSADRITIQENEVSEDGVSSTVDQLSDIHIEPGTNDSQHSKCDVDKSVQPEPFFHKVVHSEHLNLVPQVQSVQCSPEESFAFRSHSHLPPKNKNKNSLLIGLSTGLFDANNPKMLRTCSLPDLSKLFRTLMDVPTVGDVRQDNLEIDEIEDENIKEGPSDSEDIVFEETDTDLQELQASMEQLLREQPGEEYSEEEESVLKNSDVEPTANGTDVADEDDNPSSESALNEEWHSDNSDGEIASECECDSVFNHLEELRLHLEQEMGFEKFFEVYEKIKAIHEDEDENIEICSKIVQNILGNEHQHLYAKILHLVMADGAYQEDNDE
T12 sequence (Q9UQB9 whole entry): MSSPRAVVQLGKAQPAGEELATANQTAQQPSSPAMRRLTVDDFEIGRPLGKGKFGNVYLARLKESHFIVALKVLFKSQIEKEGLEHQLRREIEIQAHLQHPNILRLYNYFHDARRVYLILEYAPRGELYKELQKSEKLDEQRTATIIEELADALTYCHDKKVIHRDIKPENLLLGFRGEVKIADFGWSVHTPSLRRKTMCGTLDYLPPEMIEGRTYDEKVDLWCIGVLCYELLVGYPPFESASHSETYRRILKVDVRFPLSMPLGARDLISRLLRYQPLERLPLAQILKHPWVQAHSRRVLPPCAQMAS
T7 sequence (Q9Y616 whole entry): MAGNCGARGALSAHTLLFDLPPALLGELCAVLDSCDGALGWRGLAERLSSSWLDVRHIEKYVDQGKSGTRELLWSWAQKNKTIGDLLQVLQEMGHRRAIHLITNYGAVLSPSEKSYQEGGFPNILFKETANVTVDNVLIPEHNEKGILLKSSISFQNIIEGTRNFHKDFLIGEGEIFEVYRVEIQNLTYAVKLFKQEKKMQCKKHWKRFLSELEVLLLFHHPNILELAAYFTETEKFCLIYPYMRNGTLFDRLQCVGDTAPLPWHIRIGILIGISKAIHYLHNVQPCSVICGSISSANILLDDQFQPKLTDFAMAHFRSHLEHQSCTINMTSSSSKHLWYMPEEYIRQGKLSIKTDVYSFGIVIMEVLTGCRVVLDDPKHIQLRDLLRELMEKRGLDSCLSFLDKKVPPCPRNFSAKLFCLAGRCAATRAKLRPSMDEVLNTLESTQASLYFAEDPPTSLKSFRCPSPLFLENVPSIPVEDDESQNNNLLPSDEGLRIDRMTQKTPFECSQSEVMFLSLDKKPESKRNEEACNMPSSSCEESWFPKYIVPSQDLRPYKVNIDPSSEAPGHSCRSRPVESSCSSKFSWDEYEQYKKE

SMILES: Cc1ncsc1-c1ccc([C@H](C)NC(=O)[C@@H]2C[C@@H](O)CN2C(=O)[C@@H](NC(=O)[C@H]2CC[C@H](C(=O)N3CCN(CCNC(=O)c4cc(Oc5ccc(NC(=O)Nc6cc(C(C)(C)C)on6)cc5)ccn4)CC3)CC2)C(C)(C)C)cc1 [MA191, 4-(4-(3-(5-(tert-Butyl)isoxazol-3-yl)ureido)phenoxy)-N-(2-(4-(trans-4-(((S)-1-((2S,4R)-4-hydroxy-2-(((S)-1-(4-(4-methylthiazol-5-yl)phenyl)ethyl)carbamoyl)pyrrolidin-1-yl)-3,3-dimethyl-1-oxobutan-2-yl)carbamoyl)cyclohexanecarbonyl)piperazin-1-yl)ethyl)picolinamide]
- Tracer bound [1]: 115.0%
- remaining activity at 1 µM [2]: 54.8%
- remaining activity at 1 µM [3]: 109%
- remaining activity at 1 µM [4]: 94%
- remaining activity at 1 µM [5]: 103%
- remaining activity at 1 µM [6]: 112%
- remaining activity at 1 µM [7]: 115%
- Tracer bound [8]: 117.0%
- remaining activity at 1 µM [9]: 115%
- remaining activity at 1 µM [10]: 104%
- remaining activity at 1 µM [11]: 108%
- remaining activity at 1 µM [12]: 110%
- remaining activity at 1 µM [13]: 82.5%
- remaining activity at 1 µM [14]: 120%
- remaining activity at 1 µM [15]: 94.4%
- remaining activity at 1 µM [16]: 116%
- remaining activity at 1 µM [17]: 106%
- Tracer bound [18]: 92.4%
- remaining activity at 1 µM [19]: 104%
- remaining activity at 1 µM [20]: 107%
- remaining activity at 1 µM [21]: 105%
- remaining activity at 1 µM [22]: 93.5%
- remaining activity at 1 µM [23]: 103%
- Tracer bound [24]: 107.8%
- remaining activity at 1 µM [25]: 95.9%
- remaining activity at 1 µM [26]: 66%
- Tracer bound [27]: 102.5%
- remaining activity at 1 µM [28]: 107%
- remaining activity at 1 µM [29]: 101%
- remaining activity at 1 µM [30]: 81.3%
